In patent publication US20020198219A1, “2-pyridinamine compositions and related methods” (priority 2000, published 2002):
Read-outs that look alike come from different tables or passages of the source.

Legend:
[1] = tested on: differentiated P19 neurons; experiment: Differentiated P19 excitotoxicity assay (glutamate/glycine-induced death, Alamar Blue); type: cell-based, murine; details: for IC50: read-out: IC50 for Neuroprotection [lower-upper 95% C.I.]; for Emax: read-out: Maximal Efficacy for Neuroprotection
Procedure: Alamar Blue fluorescence, an indicator of cell viability, was used to determine cell viability after an NMDA-induced cytotoxic insult. […] However, since raw fluorescence counts vary from experiment to experiment, FIGS. 2A, 2B, and 2C are expressed as a percent of control.
(§1) Glutamate toxicity dose response in the presence of a constant 1 mM glycine concentration was measured in the differentiated P19 neurons. The curve generated through the data points is the average of 6 separate dose response curves. Data points are represented as the percent of control cells ±standard error. % control=(([Glutamate]exp−[Glutamate]max)/(Controlvehicle−[Glutamate]max))×100.
Data points are the average ±standard error of three separate experiments.
These cells were used to measure the effects of various known kinase inhibitors (Compound Identification (ID) column in Table I) upon cytotoxicity-induced by NMDA. First, P19 cells were differentiated as described in Example 2. Then cells were exposed to 3 mM of glutamate in the presence of 1 mM glycine.
Cell viability was determined. Compounds that prevented excitotoxicity were determined by measuring the percentage of viable cells compared to differentiated P19 cells that were not presented with a toxic insult (Table I).
Cell viability was measured using two methods. The first method was a confocal, single-cell fluorescence imaging-based method using the live cell dye carboxy-fluorescein diacetate (CFDA). CFDA labels the cell bodies and processes of living cells. […] CFDA fluorescence was measured using a modified Attofluor Imager device (Atto Instruments, Rockville Pike, Md.). Cells were labeled with 1 uM CFDA for 15 min in media, then placed onto the stage of the Attofluor microscope. The dye was excited by light from a mercury lamp source passed through a 488 nm bandpass filter of 10 nm band width, passed through a CARV real-time confocal spinning disk module (Atto Instruments, Rockville, Md.), and then passed through a 40× oil immersion objective (Zeiss Fluar, NA=1.3). Emitted light was transmitted through a 495 nm dichroic mirror, collected to an Attofluor intensified CCD camera, and images were visualized using Attofluor RatioVision software (Atto Instruments, Rockville, Md.).
The second method for measuring cell viability was a plate reader method. Cells plated into black 96 well plates (Packard viewplates) are loaded with 5% Alamar Blue dye (Biosource International). Alamar Blue is a dye that takes advantage of mitochondrial reductases to convert non-fluorescent resazurin to fluorescent resorufin (excitation 535 nm, emission 580 nm). Baseline fluorescence counts were read at room temperature in a Wallac plate reader immediately after addition of Alamar blue. Fluorescence counts of cell viability were taken the same way after 1 hour incubation at 37° C. Fluorescence was expressed as a percent of control, untreated cells after subtraction of background fluorescence. Live/dead cells were confirmed visually with a light microscope. […]

CAMKII = details: from the literature; read-out: Potency, CAMKII; cited from earlier work
Casein Kinase 1 = molecular target: T1, Casein Kinase 1 (Rattus norvegicus, UniProt Q06486); experiment: Kinase assay (33P Flashplate), Casein Kinase 1; type: biochemical; details: mean of at least two curves
T1 construct: a truncation at amino acid 318 of the C-terminal portion of the rat CK1 delta isoform; host or cells: E. coli
T1 sequence (Q06486 1-317): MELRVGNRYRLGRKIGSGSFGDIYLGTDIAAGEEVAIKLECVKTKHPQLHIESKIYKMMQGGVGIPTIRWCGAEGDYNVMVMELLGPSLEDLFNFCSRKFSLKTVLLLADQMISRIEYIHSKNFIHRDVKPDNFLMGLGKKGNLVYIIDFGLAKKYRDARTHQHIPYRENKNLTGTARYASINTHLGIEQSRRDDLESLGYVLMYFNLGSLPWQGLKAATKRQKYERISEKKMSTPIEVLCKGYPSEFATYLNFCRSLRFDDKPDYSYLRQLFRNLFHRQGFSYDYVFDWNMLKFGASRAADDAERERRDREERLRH
Procedure: (§2) The general procedure used to assay for kinase activity was as follows: a kinase reaction mix was prepared in 50 mM Tris-HCl pH=8, 10 mM MgCl2, 0.1 mM Na3VO4, 1 mM DTT, 10 μM ATP, 0.25-1 μM biotinylated peptide substrate, 0.2-0.8 [Curies per well ^33P-γ-ATP [2000-3000 Ci/mmol]. Assay conditions varied slightly for each protein kinase, for example, insulin receptor kinase requires 10 mM MnCl2 for activity and calmodulin-dependent protein kinase requires calmodulin and 10 mM CaCl2. Reaction mix was dispensed into the wells of a streptavidin-coated Flashplate and 1 μl drug stock in 100% DMSO was added to a 100 μL reaction volume resulting in a final concentration of 1% DMSO in the reaction. Enzyme was diluted in 50 mM Tris-HCl pH=8.0, 0.1% BSA and added to each well. […] Test compounds were assayed in duplicate at 8 concentrations ranging from 100 μM to 10 μM in one order of magnitude steps. […] The IC50 was calculated from the dose response curve of the percent inhibition of the maximum signal in the assay according to the formula [max signal−background/test compound signal−background×(100)]=% inhibition by graphing the percent inhibition against the log concentration of test compound.
(§3) Casein Kinase 1 is a truncation at amino acid 318 of the C-terminal portion of the rat CK1 delta isoform produced in E. coli.

EGF-R = EGF-R (Homo sapiens, UniProt P00533); experiment: biochemical
Procedure: (§4) Assay conditions varied slightly for each protein kinase, for example, insulin receptor kinase requires 10 mM MnCl2 for activity and calmodulin-dependent protein kinase requires calmodulin and 10 mM CaCl2. Reaction mix was dispensed into the wells of a streptavidin-coated Flashplate and 1 μl drug stock in 100% DMSO was added to a 100 μL reaction volume resulting in a final concentration of 1% DMSO in the reaction. Enzyme was diluted in 50 mM Tris-HCl pH=8.0, 0.1% BSA and added to each well. The reaction was incubated for one hour at 30° C. in the presence of compound. After one hour the reaction mix was aspirated from the plate and the plate was washed with PBS containing 100 mM EDTA. The plate was read on a scintillation counter to determine ^33P-γ-ATP incorporated into the immobilized peptide. Test compounds were assayed in duplicate at 8 concentrations ranging from 100 μM to 10 μM in one order of magnitude steps. A maximum and minimum signal for the assay was determined on each plate. The IC50 was calculated from the dose response curve of the percent inhibition of the maximum signal in the assay according to the formula [max signal−background/test compound signal−background×(100)]=% inhibition by graphing the percent inhibition against the log concentration of test compound. Known inhibitor compounds appropriate for the kinase being assayed were also included on each plate. […]

CDK1 = molecular target: T2, CDK1 (Homo sapiens, UniProt P06493); experiment: Kinase assay (33P Flashplate), CDK1; type: biochemical; details: mean of at least two curves
T2 construct: host or cells: insect cells
T2 sequence (P06493 whole entry): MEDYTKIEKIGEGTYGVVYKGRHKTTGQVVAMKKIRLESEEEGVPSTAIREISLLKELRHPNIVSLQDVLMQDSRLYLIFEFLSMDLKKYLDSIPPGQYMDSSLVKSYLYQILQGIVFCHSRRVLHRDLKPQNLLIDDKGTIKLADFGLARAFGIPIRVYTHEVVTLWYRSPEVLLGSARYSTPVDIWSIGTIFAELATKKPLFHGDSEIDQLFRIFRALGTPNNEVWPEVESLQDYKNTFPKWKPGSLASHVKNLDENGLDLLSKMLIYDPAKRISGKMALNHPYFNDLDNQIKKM
T2 sequence (P14635 whole entry partner): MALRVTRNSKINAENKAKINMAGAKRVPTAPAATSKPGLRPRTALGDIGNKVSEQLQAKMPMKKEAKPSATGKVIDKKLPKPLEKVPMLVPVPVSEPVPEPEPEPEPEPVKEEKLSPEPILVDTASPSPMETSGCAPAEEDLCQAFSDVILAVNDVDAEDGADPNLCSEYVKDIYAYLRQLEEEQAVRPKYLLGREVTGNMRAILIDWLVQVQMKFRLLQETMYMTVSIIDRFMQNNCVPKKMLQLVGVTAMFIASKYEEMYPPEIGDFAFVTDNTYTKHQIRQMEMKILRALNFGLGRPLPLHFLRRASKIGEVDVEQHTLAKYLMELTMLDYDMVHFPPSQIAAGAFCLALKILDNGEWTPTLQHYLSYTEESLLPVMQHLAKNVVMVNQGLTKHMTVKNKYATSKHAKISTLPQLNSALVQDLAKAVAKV
Procedure: as §2, §3

P19 neurons = tested on: P19 neurons
Procedure: as §1

PK A = molecular target: T3, PK A (Bos taurus, UniProt P00517); experiment: Kinase assay (33P Flashplate), Protein Kinase A; type: biochemical, bovine
T3 construct: Protein Kinase A is the catalytic subunit of cAMP-dependent protein kinase-A purified from bovine heart; from tissue; host or cells: bovine heart
Procedure: as §4

Casein Kinase 2 = molecular target: T4, Casein Kinase 2 (Homo sapiens, UniProt P68400); experiment: Kinase assay (33P Flashplate), Casein Kinase 2; type: biochemical; details: mean of at least two curves
T4 construct: host or cells: E. coli
T4 sequence (P68400 whole entry): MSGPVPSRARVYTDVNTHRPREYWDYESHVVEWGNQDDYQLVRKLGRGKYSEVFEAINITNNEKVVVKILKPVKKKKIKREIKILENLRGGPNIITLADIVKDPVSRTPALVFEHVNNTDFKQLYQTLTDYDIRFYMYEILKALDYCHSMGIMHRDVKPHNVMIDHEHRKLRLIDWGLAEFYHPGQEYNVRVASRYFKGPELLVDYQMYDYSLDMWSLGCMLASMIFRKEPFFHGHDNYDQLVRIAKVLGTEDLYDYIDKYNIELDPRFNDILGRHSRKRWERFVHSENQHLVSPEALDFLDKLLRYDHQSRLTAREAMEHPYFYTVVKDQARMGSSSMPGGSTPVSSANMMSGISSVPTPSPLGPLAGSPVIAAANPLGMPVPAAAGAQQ
T4 sequence (P67870 whole entry partner): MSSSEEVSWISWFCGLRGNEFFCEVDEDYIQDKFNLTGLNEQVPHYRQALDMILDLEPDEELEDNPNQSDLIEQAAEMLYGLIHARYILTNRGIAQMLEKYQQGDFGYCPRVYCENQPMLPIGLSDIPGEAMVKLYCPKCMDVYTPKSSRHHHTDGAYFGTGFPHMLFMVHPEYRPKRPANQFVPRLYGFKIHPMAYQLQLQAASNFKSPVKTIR
Procedure: as §2, §3

Calmodulin Kinase = molecular target: T5, Calmodulin Kinase (Rattus norvegicus, UniProt P11275); experiment: Kinase assay (33P Flashplate), Calmodulin Kinase; type: biochemical; details: mean of at least two curves
T5 construct: host or cells: insect cells
T5 sequence (P11275 1-325): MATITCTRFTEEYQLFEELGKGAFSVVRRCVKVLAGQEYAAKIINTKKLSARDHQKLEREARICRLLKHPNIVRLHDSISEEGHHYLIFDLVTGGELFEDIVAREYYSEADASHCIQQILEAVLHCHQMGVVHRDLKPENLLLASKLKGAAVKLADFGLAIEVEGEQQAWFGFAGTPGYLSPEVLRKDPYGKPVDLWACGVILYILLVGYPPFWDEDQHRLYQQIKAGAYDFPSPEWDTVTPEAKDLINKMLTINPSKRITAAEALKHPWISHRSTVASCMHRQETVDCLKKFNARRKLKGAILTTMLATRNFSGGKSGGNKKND
Procedure: as §2, §3

PKC-γ = molecular target: T6, PKC-γ (Homo sapiens, UniProt P05129); experiment: Kinase assay (33P Flashplate), PKC-γ; type: biochemical; details: mean of at least two curves
T6 construct: host or cells: insect cells
Procedure: as §2, §3

NMDA receptor [2] = details: P19 membranes; concentration-dependent
Procedure: MK-801 inhibition of [^3H]-MK-801 binding was assayed in P19 membranes. MK-801 concentrations are expressed as 10^−x Molar. Data points represent the mean ±standard error from eight experiments. % control=((CPM−CPMbottom)/(CPMtop−CPMbottom))×100.
Data points represent the mean ±standard error from eight experiments.

NMDA receptor [3] = details: 3 mM glutamate, 1 mM glycine; MK-801 100 μM, U0126 10 μM
Procedure: Cells were loaded with 5 μM Fura-2-AM (Molecular Probes) for 1 hr at 37° C. They were washed once with Hank's balanced salt solution (HBSS, Gibco BRL), and assayed in HBSS buffer. Cells were placed onto the stage of a modified ATTOFLUOR™ Imager (Atto Instruments, Rockville Pike, Md.). High speed, dual excitation of fura-2 was carried out using a RATIOARC™ High-Speed Excitor (Atto Instruments). Mercury lamp light was passed through 334 nm or 380 nm bandpass filters (10 nm band width), and then passed through a 20× objective (Zeiss, Plan-Apochromat, NA=0.75) at a rate of 2.5 Hz. Emitted light was transmitted through a 400 nm dichroic mirror, and collected to an ATTOFLUORT intensified CCD camera. Ratio-images were acquired, and the average intensity of the images when excited at 334 nm and 380 nm was analyzed using ATTOFLUOR RATIOVISION™ software (Atto Instruments, Rockville, Md.).
MK-801 was administered 24 hours prior to assay. Traces are the average ±standard error from three separate experiments for each condition. […] MK-801 inhibition of [^3H]-MK-801 binding was assayed in P19 membranes. MK-801 concentrations are expressed as 10^−x Molar. Data points represent the mean ±standard error from eight experiments. % control=((CPM−CPMbottom)/(CPMtop−CPMbottom))×100.
Traces are the average ±standard error from four separate experiments for each condition.

Insulin Receptor Kinase = molecular target: T7, Insulin Receptor Kinase (Homo sapiens, UniProt P06213); experiment: Kinase assay (33P Flashplate), Insulin Receptor Kinase; type: biochemical; details: mean of at least two curves
T7 construct: Insulin Receptor Kinase consists of residues 941-1313 of the cytoplasmic domain of the beta-subunit of the human insulin receptor
T7 sequence (P06213 980-1352): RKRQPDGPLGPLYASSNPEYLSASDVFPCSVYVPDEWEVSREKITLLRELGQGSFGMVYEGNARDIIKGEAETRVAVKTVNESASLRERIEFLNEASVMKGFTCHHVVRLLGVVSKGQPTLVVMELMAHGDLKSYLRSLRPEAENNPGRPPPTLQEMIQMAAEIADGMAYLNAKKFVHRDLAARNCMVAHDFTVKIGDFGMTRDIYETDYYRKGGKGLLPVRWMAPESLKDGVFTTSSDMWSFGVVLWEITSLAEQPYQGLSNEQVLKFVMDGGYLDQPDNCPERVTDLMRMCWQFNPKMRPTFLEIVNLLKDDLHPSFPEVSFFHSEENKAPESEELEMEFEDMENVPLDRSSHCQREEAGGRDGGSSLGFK
Procedure: as §2, §3

EGF receptor = EGF receptor (Homo sapiens, UniProt P00533); details: from the literature; read-out: Potency, EGF receptor; cited from earlier work
Chain of EGF receptor (P00533 25-1210): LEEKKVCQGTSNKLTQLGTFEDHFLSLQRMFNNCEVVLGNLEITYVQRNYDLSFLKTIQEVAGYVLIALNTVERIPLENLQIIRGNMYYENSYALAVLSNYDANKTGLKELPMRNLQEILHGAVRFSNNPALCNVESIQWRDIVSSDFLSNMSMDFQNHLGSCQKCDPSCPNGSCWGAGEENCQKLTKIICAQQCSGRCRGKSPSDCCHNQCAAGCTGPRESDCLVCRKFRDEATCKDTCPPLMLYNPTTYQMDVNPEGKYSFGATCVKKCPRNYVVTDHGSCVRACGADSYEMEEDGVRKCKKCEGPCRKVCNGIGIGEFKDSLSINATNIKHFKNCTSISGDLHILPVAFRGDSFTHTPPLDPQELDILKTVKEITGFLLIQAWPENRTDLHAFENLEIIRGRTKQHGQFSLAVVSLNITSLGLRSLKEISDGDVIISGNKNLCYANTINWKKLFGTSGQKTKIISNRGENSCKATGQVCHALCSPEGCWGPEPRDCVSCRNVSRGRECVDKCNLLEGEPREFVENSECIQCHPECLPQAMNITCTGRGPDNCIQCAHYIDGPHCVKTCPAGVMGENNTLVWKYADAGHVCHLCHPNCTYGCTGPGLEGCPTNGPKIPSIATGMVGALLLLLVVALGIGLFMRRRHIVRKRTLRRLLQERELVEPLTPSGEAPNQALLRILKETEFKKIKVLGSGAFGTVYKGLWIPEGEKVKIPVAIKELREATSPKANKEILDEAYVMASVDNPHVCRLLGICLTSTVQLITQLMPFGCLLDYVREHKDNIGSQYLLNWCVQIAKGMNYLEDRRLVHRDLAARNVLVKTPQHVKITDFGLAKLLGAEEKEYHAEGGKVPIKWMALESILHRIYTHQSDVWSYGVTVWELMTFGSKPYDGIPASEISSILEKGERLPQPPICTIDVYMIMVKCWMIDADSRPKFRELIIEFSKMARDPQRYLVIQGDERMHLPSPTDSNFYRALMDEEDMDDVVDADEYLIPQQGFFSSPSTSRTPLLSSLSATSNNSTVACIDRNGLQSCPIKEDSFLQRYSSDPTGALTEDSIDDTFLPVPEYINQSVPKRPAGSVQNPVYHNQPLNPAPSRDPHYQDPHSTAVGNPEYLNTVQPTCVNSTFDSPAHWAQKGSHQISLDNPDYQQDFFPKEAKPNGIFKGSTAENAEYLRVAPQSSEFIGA

p60^c-src = p60^c-src (Homo sapiens, UniProt P12931); details: from the literature; read-out: Potency, p60^c-src; cited from earlier work
PKA = PKA (Homo sapiens, UniProt P17612); details: from the literature; read-out: Potency, PKA; cited from earlier work
PKG = molecular target: T8, PKG (Homo sapiens, UniProt Q13976); details: from the literature; read-out: Potency, PKG; cited from earlier work
T8 sequence (Q13976 1-671): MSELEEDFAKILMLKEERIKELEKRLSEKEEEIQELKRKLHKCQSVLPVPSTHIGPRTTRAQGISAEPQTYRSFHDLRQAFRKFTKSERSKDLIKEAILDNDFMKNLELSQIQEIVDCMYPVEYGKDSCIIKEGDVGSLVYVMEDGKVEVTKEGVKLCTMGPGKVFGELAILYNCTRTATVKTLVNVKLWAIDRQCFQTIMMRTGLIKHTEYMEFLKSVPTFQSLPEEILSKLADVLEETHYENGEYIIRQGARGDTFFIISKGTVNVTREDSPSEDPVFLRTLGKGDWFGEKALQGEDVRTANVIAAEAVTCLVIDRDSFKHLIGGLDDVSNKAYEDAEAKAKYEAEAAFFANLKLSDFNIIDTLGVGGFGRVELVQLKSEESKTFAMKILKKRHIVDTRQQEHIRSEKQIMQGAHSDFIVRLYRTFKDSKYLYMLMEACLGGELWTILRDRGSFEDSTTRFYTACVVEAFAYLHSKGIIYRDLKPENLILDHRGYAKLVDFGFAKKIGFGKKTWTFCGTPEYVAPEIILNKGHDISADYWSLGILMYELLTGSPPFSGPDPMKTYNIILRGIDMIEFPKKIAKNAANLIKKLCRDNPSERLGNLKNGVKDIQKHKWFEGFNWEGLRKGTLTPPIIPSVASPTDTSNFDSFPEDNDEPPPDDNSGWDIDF

PKC = details: from the literature; read-out: Potency, PKC; cited from earlier work
[4] = 3 mM glutamate + 1 mM glycine, mean of three separate curves
[5] = Mus musculus, Neuron, 3 mM glutamate + 1 mM glycine, mean of three separate curves
[6] = Mus musculus, Neuron, 3 mM glutamate + 1 mM glycine

Compound | Maximal Efficacy for Neuroprotection ([1]; 3 mM glutamate + 1 mM glycine) | IC50 (Casein Kinase 1) [µM] | IC50 (CDK1) [µM] | IC50 (Casein Kinase 2) [µM] | IC50 (Calmodulin Kinase) [µM] | IC50 [1, 5] [µM] | Emax [1, 6] [%] | IC50 (PKC-γ) [µM] | IC50 (p60^c-src) [µM] | IC50 [1, 4] [µM] | further results
CN([C@@H](Cc1ccc(OS(=O)(=O)c2cccc3cnccc23)cc1)C(=O)N1CCN(c2ccccc2)CC1)S(=O)(=O)c1cccc2cnccc12 [KN62] | <10% |  |  |  |  |  |  |  |  |  | IC50 for Neuroprotection [lower-upper 95% C.I.] [1, 4]: Ineffective; Ki (CAMKII): ~0.9 µM
N#CC(=C(/N)Sc1ccccc1N)/C(C#N)=C(/N)Sc1ccccc1N [U0126, bis[amino[(2-aminophenyl)thio]methylene] Butanedinitrile] |  | > 100 | > 100 | > 100 | > 100 | 1.1 | > 80 | 29.5 |  |  | IC50 (EGF-R): > 100 µM; effect on basal P19 neuron viability (P19 neurons): did not affect the basal viability; IC50 (PK A): > 100 µM
C[C@]12N[C@H](Cc3ccccc31)c1ccccc12 [MK-801] |  |  |  |  |  |  |  |  |  |  | inhibition of [3H]-MK-801 binding (NMDA receptor [2]): 100%; Maximal protection against glutamate toxicity ([1]; 3 mM glutamate and 1 mM glycine-induced P19 neuron death): close to control levels; effect on glutamate/glycine-induced intracellular calcium response (NMDA receptor [3]): significantly inhibited
COc1cc(N)nc2[nH]c(-c3ccc(F)cc3)c(-c3ccncc3)c12 [Compound A] |  | 0.116 | > 100 | > 100 | > 100 | 9.7 | > 80 | 8.35 |  |  | IC50 (PK A; mean of at least two curves, read-out: PK A): > 100 µM; IC50 (Insulin Receptor Kinase): > 100 µM
O=C(O)c1cc(N(Cc2ccccc2O)Cc2cc(O)ccc2O)ccc1O [Lavendustin A] | <25% |  |  |  |  |  |  |  | ~0.5 | > 10 | IC50 (EGF receptor): ~0.011 µM
Calphostin C | ˜50% |  |  |  |  |  |  |  | > 50 | > 1 | IC50 (PKA): > 50 µM; IC50 (PKG): > 25 µM; IC50 (PKC): ~0.05 µM
